Results as given in patent publication US20260027125A1, “AN ANTIBACTERIAL PARENTERAL FORMULATION AND METHODS THEREOF” (BUGWORKS RESEARCH INDIA PVT. LTD., priority 2022, published 2026).
Structures can show the parent of a compound that is named as a salt.

Tests used:
Escherichia coli = assay: microbe, parasite or virus in culture; format: cell-based
Klebsiella pneumoniae = assay: microbe, parasite or virus in culture; format: cell-based
Enterobacter cloacae = assay: microbe, parasite or virus in culture; format: cell-based
[1] = system: Proteus mirabilis, vulgaris; assay: microbe, parasite or virus in culture; format: cell-based
[2] = system: Stenotrophomonas maltophilia; assay: microbe, parasite or virus in culture; format: cell-based
Salmonella species = assay: microbe, parasite or virus in culture; format: cell-based
Morganella morgannii = assay: microbe, parasite or virus in culture; format: cell-based
Achromobacter spp. = assay: microbe, parasite or virus in culture; format: cell-based
Legionella pneumophila = assay: microbe, parasite or virus in culture; format: cell-based
Shigella sp. = assay: microbe, parasite or virus in culture; format: cell-based
Hemophilus influenzae = assay: microbe, parasite or virus in culture; format: cell-based
Moraxella catarrhalis = assay: microbe, parasite or virus in culture; format: cell-based
[3] = system: Prevotella sp. (anaerobe); assay: microbe, parasite or virus in culture; format: cell-based
[4] = system: Mycoplasma species (atypical); assay: microbe, parasite or virus in culture; format: cell-based
[5] = system: Ureaplasma species (atypical); assay: microbe, parasite or virus in culture; format: cell-based
Staphylococcus aureus = assay: microbe, parasite or virus in culture; format: cell-based
Streptococcus pyogenes = assay: microbe, parasite or virus in culture; format: cell-based
Enterococcus faecium = assay: microbe, parasite or virus in culture; format: cell-based
Streptococcus pneumoniae = assay: microbe, parasite or virus in culture; format: cell-based
Francisella tularensis = assay: microbe, parasite or virus in culture; format: cell-based
Burkholderia mallei = assay: microbe, parasite or virus in culture; format: cell-based
Yersinia pestis = assay: microbe, parasite or virus in culture; format: cell-based
[6] = pH solution stability study; format: physicochemical
Description: The weighed quantity of compound of Formula (I) formate salt was added to each buffers system and dissolved. Volume make up was performed with WFI. The 5 mL of sample was filled in 5 mL USP Type I Vials. Vials were stopped and sealed. These vials were kept at 25° C. for stability study. The blank buffers/placebo samples were also placed along with active samples.

[7] = Photostability study (ICH-Q1B); format: physicochemical; settings: ICH-Q1B illumination
A. baumannii ATCC 17978 = assay: Neutropenic murine model of thigh infection; format: in vivo, Acinetobacter baumannii; settings: neutropenic mice
Neisseria gonorrhoea [8] = system: Neisseria gonorrhoea
Neisseria gonorrhoea [9] = assay: microbe, parasite or virus in culture
Helicobacter pylori = assay: microbe, parasite or virus in culture
[10] = Legionella pneumophila clinical isolates, N 35

Compound: Cn1c(=O)ccc2ccc(F)c(CCNC[C@H]3CN(c4cnc5c(n4)NC(=O)CO5)C(=O)O3)c21 [compound of Formula (I) formate salt, (S)-6-(5-(((2-(7-fluoro-1-methyl-2-oxo-1,2-dihydroquinolin-8-yl)ethyl)amino)methyl)-2-oxooxazolidin-3-yl)-2H-pyrazino[2,3-b][1,4]oxazin-3(4H)-one formate]
- MIC Range, high end (Escherichia coli): 4 µg/mL
- MIC Range, low end (Escherichia coli): ≤0.015 µg/mL
- MIC50 (Escherichia coli; Escherichia coli): 0.12 µg/mL
- MIC90 (Escherichia coli; Escherichia coli): 0.5 µg/mL
- MIC Range, high end (Klebsiella pneumoniae): 32 µg/mL
- MIC Range, low end (Klebsiella pneumoniae): 0.03 µg/mL
- MIC50 (Klebsiella pneumoniae; Klebsiella pneumoniae): 0.5 µg/mL
- MIC90 (Klebsiella pneumoniae; Klebsiella pneumoniae): 2 µg/mL
- MIC Range, high end (Enterobacter cloacae): 32 µg/mL
- MIC Range, low end (Enterobacter cloacae): ≤0.015 µg/mL
- MIC50 (Enterobacter cloacae; Enterobacter cloacae): 0.25 µg/mL
- MIC90 (Enterobacter cloacae; Enterobacter cloacae): 1 µg/mL
- MIC Range, high end [1]: 2 µg/mL
- MIC Range, low end [1]: 0.03 µg/mL
- MIC50 ([1]; Proteus mirabilis): 0.12 µg/mL
- MIC90 ([1]; Proteus mirabilis): 0.5 µg/mL
- MIC Range, high end [2]: 2 µg/mL
- MIC Range, low end [2]: 0.03 µg/mL
- MIC50 ([2]; Stenotrophomonas maltophilia): 0.06 µg/mL
- MIC90 ([2]; Stenotrophomonas maltophilia): 0.25 µg/mL
- MIC Range, high end (Salmonella species): 2 µg/mL
- MIC Range, low end (Salmonella species): 0.03 µg/mL
- MIC50 (Salmonella species; Salmonella): 0.12 µg/mL
- MIC90 (Salmonella species; Salmonella): 0.25 µg/mL
- MIC Range, high end (Morganella morgannii): 8 µg/mL
- MIC Range, low end (Morganella morgannii): ≤0.015 µg/mL
- MIC50 (Morganella morgannii; Morganella): 0.12 µg/mL
- MIC90 (Morganella morgannii; Morganella): 0.5 µg/mL
- MIC Range, high end (Achromobacter spp.): 0.5 µg/mL
- MIC Range, low end (Achromobacter spp.): ≤0.015 µg/mL
- MIC50 (Achromobacter spp.; Achromobacter): 0.06 µg/mL
- MIC90 (Achromobacter spp.; Achromobacter): 0.12 µg/mL
- MIC50 (Legionella pneumophila; Legionella pneumophila): ≤ 0.015 µg/mL
- MIC90 (Legionella pneumophila; Legionella pneumophila): ≤ 0.015 µg/mL
- MIC Range, high end (Legionella pneumophila; [10]): ≤0.015 µg/mL
- MIC Range, low end (Legionella pneumophila; [10]): ≤0.015 µg/mL
- MIC Range, high end (Shigella sp.): 0.25 µg/mL
- MIC Range, low end (Shigella sp.): ≤0.015 µg/mL
- MIC50 (Shigella sp.; Shigella): 0.03 µg/mL
- MIC90 (Shigella sp.; Shigella): 0.06 µg/mL
- MIC Range, high end (Hemophilus influenzae): ≤0.015 µg/mL
- MIC Range, low end (Hemophilus influenzae): ≤0.015 µg/mL
- MIC50 (Hemophilus influenzae; Haemophilus influenzae): ≤ 0.015 µg/mL
- MIC90 (Hemophilus influenzae; Haemophilus influenzae): ≤ 0.015 µg/mL
- MIC Range, high end (Moraxella catarrhalis): ≤0.015 µg/mL
- MIC Range, low end (Moraxella catarrhalis): ≤0.015 µg/mL
- MIC50 (Moraxella catarrhalis; Moraxella catarrhalis): ≤ 0.015 µg/mL
- MIC90 (Moraxella catarrhalis; Moraxella catarrhalis): ≤ 0.015 µg/mL
- MIC Range, high end [3]: 1 µg/mL
- MIC Range, low end [3]: ≤0.015 µg/mL
- MIC50 ([3]; Prevotella): ≤ 0.015 µg/mL
- MIC90 ([3]; Prevotella): ≤ 0.015 µg/mL
- MIC Range, high end [4]: ≤0.015 µg/mL
- MIC Range, low end [4]: ≤0.015 µg/mL
- MIC50 ([4]; Mycoplasma leachii): ≤ 0.015 µg/mL
- MIC90 ([4]; Mycoplasma leachii): ≤ 0.015 µg/mL
- MIC Range, high end [5]: 0.03 µg/mL
- MIC Range, low end [5]: ≤0.015 µg/mL
- MIC50 ([5]; Ureaplasma): ≤ 0.015 µg/mL
- MIC90 ([5]; Ureaplasma): ≤ 0.015 µg/mL
- MIC Range, high end (Staphylococcus aureus): 0.5 µg/mL
- MIC Range, low end (Staphylococcus aureus): <0.015 µg/mL
- MIC50 (Staphylococcus aureus; Staphylococcus aureus): 0.03 µg/mL
- MIC90 (Staphylococcus aureus; Staphylococcus aureus): 0.03 µg/mL
- MIC Range, high end (Streptococcus pyogenes): 0.06 µg/mL
- MIC Range, low end (Streptococcus pyogenes): 0.03 µg/mL
- MIC50 (Streptococcus pyogenes; Streptococcus pyogenes): 0.03 µg/mL
- MIC90 (Streptococcus pyogenes; Streptococcus pyogenes): 0.03 µg/mL
- MIC Range, high end (Enterococcus faecium): 0.5 µg/mL
- MIC Range, low end (Enterococcus faecium): <0.015 µg/mL
- MIC50 (Enterococcus faecium; Enterococcus faecium): 0.03 µg/mL
- MIC90 (Enterococcus faecium; Enterococcus faecium): 0.12 µg/mL
- MIC Range, high end (Streptococcus pneumoniae): 0.06 µg/mL
- MIC Range, low end (Streptococcus pneumoniae): 0.03 µg/mL
- MIC50 (Streptococcus pneumoniae; Streptococcus pneumoniae): 0.03 µg/mL
- MIC90 (Streptococcus pneumoniae; Streptococcus pneumoniae): 0.03 µg/mL
- MIC50 (Francisella tularensis): ≤ 0.015 µg/mL
- MIC90 (Francisella tularensis): ≤ 0.015 µg/mL
- MIC Range, high end (Francisella tularensis; N 36 strains): ≤0.015 µg/mL
- MIC Range, low end (Francisella tularensis; N 36 strains): ≤0.015 µg/mL
- MIC50 (Burkholderia mallei): 0.25 µg/mL
- MIC90 (Burkholderia mallei): 1 µg/mL
- MIC Range, high end (Burkholderia mallei; N 36 strains): 4 µg/mL
- MIC Range, low end (Burkholderia mallei; N 36 strains): ≤0.015 µg/mL
- MIC50 (Yersinia pestis): ≤ 0.015 µg/mL
- MIC90 (Yersinia pestis): ≤ 0.015 µg/mL
- MIC Range, high end (Yersinia pestis; N 35 strains): ≤0.015 µg/mL
- MIC Range, low end (Yersinia pestis; N 35 strains): ≤0.015 µg/mL
- stability ([6]; acid pH (<5)): very stable
- stability ([6]; liquid state (Solution/Suspension)): highly unstable
- stability ([6]; neutral to alkaline pH range (pH 5.0 to 10.0)): unstable
- solution stability upto ([6]; pH 3.0-pH 5.0): ≤ 24 h
- sensitivity to light [7]: sensitive to light
- effect on bacterial burden in thigh (A. baumannii ATCC 17978; SC 10 mg/kg q8h, 26 hours): effective at reducing
- effect on bacterial burden in thigh (A. baumannii ATCC 17978; SC 30 mg/kg q8h, 26 hours): effective at reducing
- effect on bacterial burden in thigh (A. baumannii ATCC 17978; SC 60 mg/kg q8h, 26 hours): either a bacteriostatic or killing effect
- effect on bacterial burden in thigh (A. baumannii ATCC 17978; SC 90 mg/kg q8h, 26 hours): logarithmic killing
- effect on bacterial burden in thigh (A. baumannii ATCC 17978; SC 120 mg/kg q8h, 26 hours): logarithmic killing
- efficacy compared with polymyxin B (SC 25 mg/kg q8h) (A. baumannii ATCC 17978; doses ≥90 mg/kg q8h SC): more effective
- efficacy compared with subcutaneous meropenem (200 mg/kg q8h) (A. baumannii ATCC 17978; doses ≥90 mg/kg q8h SC): more effective
- effect on bacterial burden in thigh (A. baumannii ATCC 17978; ≥60 mg/kg q8h SC, across three replicate studies): logarithmic killing
- MIC Range, high end (Neisseria gonorrhoea [8]): ≤0.015 µg/mL
- MIC Range, low end (Neisseria gonorrhoea [8]): ≤0.015 µg/mL
- MIC50 (Neisseria gonorrhoea [9]): ≤ 0.015 µg/mL
- MIC90 (Neisseria gonorrhoea [9]): ≤ 0.015 µg/mL
- MIC50 (Helicobacter pylori): ≤ 0.015 µg/mL
- MIC90 (Helicobacter pylori): ≤ 0.015 µg/mL
